This note sets out measurements from patent US12588678B2, “Oxazoline compound, synthesis method therefor and application thereof” (NANKAI UNIVERSITY, priority 2019, dated 2026).

Values joined by “and” are separate entries in the source; they are usually repeats but may differ in a detail not shown here. Identical values can stand only once.

Series [1] has as its system Tetranychus cinnabarinus mite larvae. As to the kind of experiment: Larvicidal activity test, dipping method on bean seedling leaves. Type of series: in vivo. To be noted: checked after 4 days; for mortality at 1 µg/mL: read-out: mortality of mite larvae (%), 1 mg/L; for mortality at 10 µg/mL: read-out: mortality of mite larvae (%), 10 mg/L; for mortality at 100 µg/mL: read-out: mortality of mite larvae (%), 100 mg/L; for mortality at 200 µg/mL: read-out: mortality of mite larvae (%), 200 mg/L; for mortality at 0.1 µg/mL: read-out: mortality of mite larvae (%), 0.1 mg/L. The method in brief: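 Leaves bearing mite larvae, hatched from eggs laid over 24 h and grown 5 days at 25° C (≥60 mites per leaf), were dipped 5–6 s in compound solution with Tween. Mortality was scored after 4 days of culture against an additive-only blank. Three replicates per compound.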

The subject of series [2] is Tetranychus cinnabarinus mite eggs. As to the kind of experiment: Activity against mite eggs, dipping method on bean seedling leaves. Type of series: in vivo. The conditions noted are these: for mortality at 1 µg/mL: read-out: mortality of mite eggs (%), 1 mg/L; for mortality at 10 µg/mL: read-out: mortality of mite eggs (%), 10 mg/L; for mortality at 100 µg/mL: read-out: mortality of mite eggs (%), 100 mg/L; for mortality at 200 µg/mL: read-out: mortality of mite eggs (%), 200 mg/L. A digest of the protocol:
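Female T. cinnabarinus laid eggs on bean seedling leaves for 24 h at 25° C., adults removed; after 1 day, egg-bearing leaves dipped 5-6 s in test solution. Mortality of eggs scored after 4 further days of greenhouse culture, versus additive-only blank; three replicates per compound.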

The mark [3] stands for this setting: Tetranychus cinnabarinus, 96 h, checked after 4 days.

Regarding `O=S(=O)(Oc1ccc(C2COC(c3c(F)cccc3F)=N2)cc1)c1cccc2ccccc12` (stereo not drawn) [Compound R3-20], in series [1] (Tetranychus cinnabarinus, 96 h), the mortality at 1 µg/mL was found to be 55%, the mortality at 10 µg/mL is 80%, the mortality at 100 µg/mL turned out to be 90% and the mortality at 200 µg/mL came out at 100%. For the same compound, in series [2] (setting [3]), the mortality at 1 µg/mL was 30%, the mortality at 10 µg/mL came to 70%, the mortality at 100 µg/mL came out at 80% and the mortality at 200 µg/mL was 100%.
For the compound `O=S(=O)(Oc1ccc(C2COC(c3c(F)cccc3F)=N2)cc1)c1ccc2ccccc2c1` (stereo not drawn) [Compound R3-21], in series [1] (Tetranychus cinnabarinus, 96 h), the mortality at 0.1 µg/mL came to 65%, the mortality at 1 µg/mL turned out to be 95%, the mortality at 10 µg/mL is 100% and the mortality at 100 µg/mL came out at 100%. The mortality at 200 µg/mL in series [1] (Tetranychus cinnabarinus, 96 h) came to 100%. In series [2] (setting [3]), the mortality at 1 µg/mL stood at 65%, the mortality at 10 µg/mL was 90%, the mortality at 100 µg/mL was determined as 95% and the mortality at 200 µg/mL came out at 100%.
Consider `N#Cc1ccc(S(=O)(=O)Oc2ccc(C3COC(c4c(F)cccc4F)=N3)cc2)cc1` (stereo not drawn) [Compound R3-22], for which, in series [1] (Tetranychus cinnabarinus, 96 h), the mortality at 1 µg/mL was 40%, the mortality at 10 µg/mL turned out to be 70%, the mortality at 100 µg/mL was determined as 95% and the mortality at 200 µg/mL was 100%. Moreover, in series [2] (setting [3]), the mortality at 1 µg/mL is 45%, the mortality at 10 µg/mL stood at 70%, the mortality at 100 µg/mL is 90% and the mortality at 200 µg/mL is 100%.
As usually defined, the LC50 is the concentration lethal to half of the exposed cells or organisms. As for `CCOc1cc(C(C)(C)C)ccc1C1COC(c2c(F)cccc2F)=N1` (stereo not drawn) [Etoxazole, reference compound], in series [1] (10 mg/L), the “mortality of mite larvae (%)” value worked out at 100%. For the same compound, the mortality at 0.01 µg/mL was 30% in series [1] (Tetranychus cinnabarinus, 96 h, read-out: mortality of mite larvae (%), 0.01 mg/L) and 30% in series [2] (Tetranychus cinnabarinus, 96 h, read-out: mortality of mite eggs (%), 0.01 mg/L, checked after 4 days). The mortality at 0.05 µg/mL in series [1] (Tetranychus cinnabarinus, 96 h, read-out: mortality of mite larvae (%), 0.05 mg/L) turned out to be 30%; in series [2] (Tetranychus cinnabarinus, 96 h, read-out: mortality of mite eggs (%), 0.05 mg/L, checked after 4 days) it was 30%. Besides, the mortality at 0.1 µg/mL in series [1] (Tetranychus cinnabarinus, 96 h) amounted to 65%. For the same compound, the mortality at 0.5 µg/mL was determined as 80% in series [1] (Tetranychus cinnabarinus, 96 h, read-out: mortality of mite larvae (%), 0.5 mg/L) and 80% in series [2] (Tetranychus cinnabarinus, 96 h, read-out: mortality of mite eggs (%), 0.5 mg/L, checked after 4 days). Besides, the mortality at 1 µg/mL in series [1] (Tetranychus cinnabarinus, 96 h) turned out to be 80%; in series [2] (setting [3]), 70%. Moreover, the mortality at 10 µg/mL in series [1] (Tetranychus cinnabarinus, 96 h) is 90%; in series [2] (setting [3]) it was 90%. Besides, the mortality at 100 µg/mL came out at 100% in series [1] (Tetranychus cinnabarinus, 96 h) and 100% in series [2] (setting [3]). Moreover, the mortality at 200 µg/mL in series [1] (Tetranychus cinnabarinus, 96 h) was determined as 100%; in series [2] (setting [3]) it was 100%. The “mortality of mite eggs (%)” value in series [2] (0.1 mg/L, checked after 4 days) is 60%; in series [2] (0.5 mg/L, checked after 4 days), 60%; in series [2] (10 mg/L, checked after 4 days), 100% and 95%. Also, the 50% lethal concentration (LC50) in series [2] (Tetranychus cinnabarinus, 96 h, read-out: LC50 (against mite eggs), mite eggs, from regression y = ax + b) worked out at 0.128 µg/mL.
